Laboratory results taken from patent publication US10112932B2, “Benzoxazepin oxazolidinone compounds and methods of use” (Genentech, Inc., priority 2015, dated 2018).

Legend:
[1] = Unbound fraction in dog plasma (Fu); format: in vitro ADME; conditions: read-out: Fu dog (unbound fraction in species plasma)
[2] = system: HDQ-P1 (PI3Kα wild-type), p-PRAS40; experiment: p-PRAS40 MSD assay in HDQ-P1 cells (Example 907); conditions: Homo sapiens, HDQ-P1, 24 h, read-out: P-PRAS40 HDQ-P1 MSD EC50
Protocol: The following day, cells are treated with compounds and incubated for 24 hours. […] The HCC1954 cell line expresses mutant PI3Kα (E545K) vs WT in HDQP1.
The MSD platform provides a method of measuring the phosphorylated levels of pPRAS40 in a single sample. […] Following cell lysis, PRAS40 in samples is allowed to bind to the capture antibodies.
Procedure: • Compounds prepared at concentration of 2 mM in DMSO.
Day 1: Cell Plating • 1. Seed 12.500 cells in 45 ul medium for each cell line. Allow cells to settle/attach to plate for 15-20 min at room temperature. • 2. Incubate cells overnight in a 37° C. humidity and CO2 controlled incubator.
Day 2: Compound Plate Preparation and Compound Treatment • 1. For the 10× intermediate dilution plate: add 95 ul serum-free media into a standard profile greiner 384 well polypropylene plate. • 2. Use biomek Fx protocol for intermediate compound dilution in media and addition to cells: “SLS Intermed Dil Add 5 ul to Cells Jul. […] The method then transfers 5 ul from the intermediate dilution plate to the appropriate cell plate. • 3. Incubate the treated cells at 37 degrees for 24 hours in a 5% CO2 humidified incubator.
Block the MSD assay plate with 50 ul 3% Blocker A/1×MSD Wash Buffer 1-2 hr at room temp. […] Blocking buffer A contains 1×MSD wash buffer. 20 mL 1× Tris Wash buffer and 600 mg Blocker A.
Aspirate Media and Lyse the Cells • 1. Lyse the cells in 50 μl lysis buffer. Lyse at room temperature for 10-20 minutes on plate shaker. • 2. While cells are lysing, wash blocked plates 1×MSD wash buffer. • 3. Transfer 42 ul lysates (21+21 μL) to a blocked MSD pPRAS40 assay plate. • 4. Seal MSD plates and incubate at 4° C. with shaking overnight.
Day 4: MSD Assay/Detection • 8. Make a solution of 1% Blocker A in 1×MSD wash buffer. (20 mL 1× Tris Wash buffer and 200 mg Blocker A (1% w/v). This solution can be stored at 4° C. for up to one month. • 9. Wash the MSD plates with 1×MSD wash buffer. • 10. Add 10 μl of the diluted SULFO-TAG detection antibody to the plates. Incubate for 1 hr with shaking at room temp.
Wash the plates 4× with 1×MSD wash buffer. • 12. Add 35 μl 1× Read buffer with reverse pipetting to avoid bubbles. • 13. Read the plate immediately on the MSD SECTOR instrument.

[3] = system: HCC1954 cells (PI3Kα mutant H1047R); experiment: Cell viability / antiproliferative assay in HCC1954 cells (Example 903); conditions: read-out: HCC1954 antiproliferative EC50; 4 d, Cell Titer-Glo
Protocol: Cells were seeded (1,500 per well) in 384-well plates for 16 h. On day 2, nine serial 1:3 compound dilutions were made in DMSO in a 96-well plate. The compounds were then further diluted into growth media using a Rapidplate robot (Zymark Corp.). […] After 4 d, relative numbers of viable cells were measured by luminescence using Cell Titer-Glo (Promega) according to the manufacturer's instructions and read on a Wallac Multilabel Reader (Perkin-Elmer). EC50 values were calculated using Prism 6.0 software (GraphPad).

[4] = system: SW48 (H1047R) PI3Kα mutant cells, P-PRAS40; experiment: Inhibition of P-PRAS40 in SW48 isogenic cells, kinase domain mutant H1047R (Example 902)

Work on `C[C@H](Nc1ccc2c(c1)OCCn1cc(N3C(=O)OC[C@H]3C(F)F)nc1-2)C(N)=O` [Compound 101, (S)-2-((2-((S)-4-(Difluoromethyl)-2-oxooxazolidin-3-yl)-5,6-dihydrobenzo[f]imidazo[1,2-d][1,4]oxazepin-9-yl)amino)propanamide] yielded a fraction unbound [1] of 0.692, an EC50 [2] of 0.084 µM and an EC50 [3] of 0.06 µM. The “Fold Selectivity for SW48 (H1047R) vs. SW48 (parental)” value ([4]; EC50 ratio) was 2.1 (p = 0.002) and the EC50 ([4]; Homo sapiens, SW48, 24 h, read-out: P-PRAS40 SW48 (H1047R) EC50) was 0.003 µM.
